Experiment: HILIC, Waters Atlantis Premier BEH Z-HILIC, 100 × 2.1 mm, 1.7 µm, 40 °C, 0.17 mL/min, estimated dead time 1.3 min; A: water + 20 mM ammonium carbonate + 5 µM medronic acid; B: 10% water + 90% acetonitrile + 2 mM ammonium carbonate + 0.5 µM medronic acid; gradient (min/%B) 0/100 18/60 18.1/20 21.5/20 22/100 23.5/100 25.5/100
Conditions: stereoisomer not certain

Q: For `CC(=O)NC1C(OP(=O)(O)OP(=O)(O)OCC2OC(n3ccc(=O)[nH]c3=O)C(O)C2O)OC(CO)C(O)C1O` (centres undefined) [UDP-GlcNAc], which LC retention time is on record?
A: 9.68 min

Q: For `O=P(O)(O)OCC1OC(O)C(O)C(O)C1O` (centres undefined) [Glucose-6-phosphate], which LC retention time is on record?
A: 12.4 min

Q: For `O=C(CO)COP(=O)(O)O` [Triose phosphate], which LC retention time is on record?
A: 9.76 min

Q: For `O=C(O)C(CO)OP(=O)(O)O` (centres undefined) [Phosphoglyceric acid A], which LC retention time is on record?
A: 12.2 min

Q: With `O=C(O)CCC(=O)O` [Succinic Acid] as the compound, how does the LC retention time read?
A: 9.16 min

Q: Which LC retention time does the source give for `C[N+](C)(C)CC(O)CC(=O)[O-]` (centres undefined) [Carnitine] here?
A: 9.73 min

Q: Which LC retention time does the source give for `Nc1ncnc2c1ncn2C1OC(COP(=O)(O)OP(=O)(O)O)C(O)C1O` (centres undefined) [ADP] here?
A: 11 min

Q: For `O=C(O)CC(C(=O)O)C(O)C(=O)O` (centres undefined) [Isocitric acid], which LC retention time is on record?
A: 14.5 min

Q: Which LC retention time does the source give for `NC(=O)C1=CN(C2OC(COP(=O)(O)OP(=O)(O)OCC3OC(n4cnc5c(N)ncnc54)C(O)C3O)C(O)C2O)C=CC1` (centres undefined) [NADH] here?
A: 8.45 min

Q: Which LC retention time does the source give for `CC(C)(COP(=O)(O)OP(=O)(O)OCC1OC(n2cnc3c(N)ncnc32)C(O)C1OP(=O)(O)O)C(O)C(=O)NCCC(=O)NCCS` (centres undefined) [CoenzymeA] here?
A: 11.9 min

Q: Which LC retention time does the source give for `O=C(CO)C(O)C(O)C(O)COP(=O)(O)O` (centres undefined) [Fructose 6-phosphate] here?
A: 10.9 min

Q: With `Cc1cc2nc3c(=O)[nH]c(=O)nc-3n(CC(O)C(O)C(O)COP(=O)(O)OP(=O)(O)OCC3OC(n4cnc5c(N)ncnc54)C(O)C3O)c2cc1C` (centres undefined) [FAD] as the compound, how does the LC retention time read?
A: 7.12 min

Q: For `C=C(OP(=O)(O)O)C(=O)O` [PEP], which LC retention time is on record?
A: 13.8 min

Q: Which LC retention time does the source give for `NC(=O)c1ccc[n+](C2OC(COP(=O)(O)OP(=O)(O)OCC3OC(n4cnc5c(N)ncnc54)C(OP(=O)(O)O)C3O)C(O)C2O)c1` (centres undefined) [NADP] here?
A: 13.4 min

Q: Which LC retention time does the source give for `CC(O)C(=O)O` (centres undefined) [Lactic Acid] here?
A: 2.96 min

Q: With `O=P(O)(O)OCC1OC(O)(COP(=O)(O)O)C(O)C1O` (centres undefined) [Fructose-1,6-bisphosphate] as the compound, how does the LC retention time read?
A: 15.2 min

Q: For `Nc1ncnc2c1ncn2C1OC(COP(=O)(O)O)C(O)C1O` (centres undefined) [AMP], which LC retention time is on record?
A: 8.86 min

Q: For `CCC(C)C(N)C(=O)O` (centres undefined) [Isoleucine], which LC retention time is on record?
A: 5.97 min

Q: With `OCC1OC(O)C(O)C(O)C1O` (centres undefined) [Hexose] as the compound, how does the LC retention time read?
A: 7.55 min

Q: For `O=P(O)(O)OCC(O)CO` (centres undefined) [Glycerol-3-phosphate], which LC retention time is on record?
A: 9.75 min

Q: With `Nc1ncnc2c1ncn2C1OC(COP(=O)(O)OP(=O)(O)OP(=O)(O)O)C(O)C1O` (centres undefined) [ATP] as the compound, how does the LC retention time read?
A: 13 min

Q: For `O=C(O)CC(O)(CC(=O)O)C(=O)O` [Citric acid], which LC retention time is on record?
A: 13.9 min

Q: For `Nc1nc2c(ncn2C2OC(COP(=O)(O)OP(=O)(O)OP(=O)(O)O)C(O)C2O)c(=O)[nH]1` (centres undefined) [GTP], which LC retention time is on record?
A: 15.3 min

Q: For `O=C(O)CCC(O)C(=O)O` (centres undefined) [2-hydroxy glutaric acid], which LC retention time is on record?
A: 9.81 min

Q: Which LC retention time does the source give for `O=C(O)CCCCC1SCC2NC(=O)NC21` (centres undefined) [Biotin] here?
A: 4.19 min

Q: Which LC retention time does the source give for `CCC(=O)OC(CC(=O)[O-])C[N+](C)(C)C` (centres undefined) [carnitine-C3] here?
A: 6.63 min

Q: Which LC retention time does the source give for `NC(=O)c1ccc[n+](C2OC(COP(=O)(O)OP(=O)(O)OCC3OC(n4cnc5c(N)ncnc54)C(O)C3O)C(O)C2O)c1` (centres undefined) [NAD] here?
A: 10.7 min

Q: With `NC(CCC(=O)O)C(=O)O` (centres undefined) [Glutamic acid] as the compound, how does the LC retention time read?
A: 9.15 min

Q: Which LC retention time does the source give for `CC(C)CC(N)C(=O)O` (centres undefined) [Leucine] here?
A: 5.72 min

Q: With `CC(=O)SCCNC(=O)CCNC(=O)C(O)C(C)(C)COP(=O)(O)OP(=O)(O)OCC1OC(n2cnc3c(N)ncnc32)C(O)C1OP(=O)(O)O` (centres undefined) [Acetyl-CoA] as the compound, how does the LC retention time read?
A: 10.5 min

Q: For `O=C1CC(C(=O)O)NC(=O)N1` (centres undefined) [dihydroorotic acid], which LC retention time is on record?
A: 4.87 min

Q: For `O=C(O)CCC(=O)C(=O)O` [2-Oxoglutaric acid], which LC retention time is on record?
A: 9.07 min

Q: With `NC(=O)CCC(N)C(=O)O` (centres undefined) [Glutamine] as the compound, how does the LC retention time read?
A: 10.4 min

Q: With `Nc1ncnc2c1ncn2C1OC(CO)C(O)C1O` (centres undefined) [Adenosine] as the compound, how does the LC retention time read?
A: 4.21 min

— the RepoRT retention time repository
